Assay results from patent US20060281769A1, “SYNERGISTIC MODULATION OF FLT3 KINASE USING THIENOPYRIMIDINE AND THIENOPYRIDINE KINASE MODULATORS” (priority 2005, published 2006).
Entries after “also recorded” stand apart in the source; their conditions may differ.

Tests used:
[1] = test system: MV4-11 AML cells; test: Cell proliferation assay MV4-11, single agents and FTI/FLT3 inhibitor combinations; type: cell-based, human; conditions: 72-hour cell proliferation assay, FLT3 dependent cells, depending on the cell type
Excerpt: (§1) All data points are an average of triplicate samples.
as §1

[2] = test system: MV4-11 tumor xenografts; test: MV4-11 human tumor xenograft regression model in nude mice; type: in vivo; conditions: Tipifarnib 50 mg/kg oral single agent
Method: Female athymic nude mice (CD-1, nu/nu, 9-10 weeks old) were obtained from Charles River Laboratories (Wilmington, Mass.) and were maintained according to NIH standards. All mice were group housed (5 mice/cage) under clean-room conditions in sterile micro-isolator cages on a 12-hour light/dark cycle in a room maintained at 21-22° C. and 40-50% humidity. Mice were fed irradiated standard rodent diet and water ad libitum. All animals were housed in a Laboratory Animal Medicine facility that is fully accredited by the American Association for Assessment and Accreditation of Laboratory Animal Care (AAALAC). All procedures involving animals were conducted in compliance with the NIH Guide for the Care and Use of Laboratory Animals and all protocols were approved by an Internal Animal Care and Use Committee (IACUC).
On the day of study termination, a final tumor volume and final body weight were obtained on each animal. […]
The time course of the inhibitory effects of FLT3 inhibitor compounds on the growth of MV4-11 tumors is illustrated in FIG. 1. […] Percent inhibition (% I) of tumor growth was calculated versus tumor growth in the vehicle-treated Control group on the last study day.
(See FIG. 2). […] Percent Inhibition was calculated versus the mean tumor weight in the vehicle-treated control group. Statistical significance versus Control was determined by ANOVA followed by Dunnett's t-test: ** p<0.01. […]

[3] = Tolerability in tumor-bearing nude mice (body weight, overt clinical signs); conditions: either agent alone or in combination
Method: Female athymic nude mice weighing no less than 20-21 grams were inoculated subcutaneously in the left inguinal region of the thigh with 5×10^6 tumor cells in a delivery volume of 0.2 mL. For regression studies, the tumors were allowed to grow to a pre-determined size prior to initiation of dosing. […] Mice were dosed orally by gavage with vehicle (control group) or compound at various doses twice-daily (b.i.d.) during the week and once-daily (q.d.) on weekends. Dosing was continued for 11 consecutive days, depending on the kinetics of tumor growth and size of tumors in vehicle-treated control mice. […] During the study, tumor growth was measured three times-a-week (M, W, F) using electronic Vernier calipers. Tumor volume (mm^3) was calculated using the formula […], where L=length (mm) and W=width (shortest distance in mm) of the tumor. Body weight was measured three times-a-week and a loss of body weight >10% was used as an indication of lack of compound tolerability. […]
Female athymic nude mice weighing no less than 20-21 grams were inoculated subcutaneously in the left inguinal region of the thigh with 5×10^6 tumor cells in a delivery volume of 0.2 mL. For regression studies, the tumors were allowed to grow to a pre-determined size prior to initiation of dosing. […] During the study, tumor growth was measured three times-a-week (M, W, F) using electronic Vernier calipers. […]

[4] = test system: relapsed and refractory AML; conditions: cited from earlier work
[5] = multicenter Phase II trial, relapsed AML
[6] = patients with relapsed and refractory AML, phase I

Cn1cncc1C(N)(c1ccc(Cl)cc1)c1ccc2c(c1)c(-c1cccc(Cl)c1)cc(=O)n2C (single isomer, unassigned; (+)) [Tipifarnib, (+)-6-[amino(4-chlorophenyl)(1-methyl-1H-imidazol-5-yl)methyl]-4-(3-chlorophenyl)-1-methyl-2(1H)-quinolinone]
potency for inhibition of proliferation, single agent [1]: high nanomolar to high picomolar | effect on tumor volume versus control ([2]; nine days, Day 9): not significantly reduced; also recorded: ineffective | effect on tumor growth ([2]; sixteen days): ineffective | overt toxicity and adverse effects on body weight ([3]; 9-day treatment period): No overt toxicity | overt toxicity and adverse effects on body weight ([3]; 16-day treatment period): No overt toxicity | >50% reduction in bone marrow blasts [4, 5]: 31 of 50 | complete responses (bone marrow blasts <5%) [4, 5]: 17 of 50 | patients achieving complete remission [4, 6]: 2 patients | response rate [4, 6]: ~30%
